Measurements taken from US12241090B2, “Methods and systems for converting precursor cells into gastric tissues through directed differentiation” (CHILDREN'S HOSPITAL MEDICAL CENTER, priority 2014, dated 2025).

Experiments:
[1] = test system: posterior foregut spheroids; test: Three-dimensional culture of posterior foregut spheroids with RA, qPCR of organ lineage markers; assay type: cell-based, human; settings: RA (2 μM) for 72 hours (days 6-9)
Method: (§1) Following DE induction, cells were treated for three days with growth factors/antagonists in RPMI 1640 with 2.0% dFBS. […] CHIR99021 is a small molecule that stimulates the Wnt signaling pathway. RA (2 μM; Sigma Aldrich) is added on the final day. Three-dimensional growth and antral specification. Posterior foregut spheroids were embedded in Matrigel (BD Biosciences) as previously described^10, 12 and subsequently grown in Advanced DMEM/F12 (Invitrogen) supplemented with N2 (Invitrogen), B27 (Invitrogen), L-glutamine, 10 μM HEPES, penicillin/streptomycin, and EGF (100 ng ml^−1; R&D Systems). For antral specification, RA and noggin were added for the first three days of three-dimensional growth. For endocrine cell specification, the EGF concentration is lowered to 10 ng ml^−1 at day 30.
The spheroids were transferred to a three-dimensional in vitro culture system as previously described5, 10, 12. Briefly, spheroids were collected, resuspended in 50 μl Matrigel (BD Biosciences), and plated in a three-dimensional droplet. After Matrigel was allowed to solidify for 10-15 minutes in a tissue culture incubator, spheroids were overlaid with gut media: Advanced DMEM/F12 with N2 (Invitrogen), B27 (Invitrogen), L-glutamine, 10 μM HEPES, penicillin/streptomycin, and EGF (100 ng ml^−1; R&D Systems). For the first three days, RA and Noggin were added to the gut media. […]

[2] = test system: hPSC-derived definitive endoderm (DE) cultures; test: Endoderm patterning of hPSC-derived DE cultures with growth factors/antagonists, qPCR and immunofluorescence; assay type: cell-based, human; settings: CHIR 2 μM, compared with recombinant WNT3A
Method: Following DE induction, cells were treated for three days with growth factors/antagonists in RPMI 1640 with 2.0% dFBS. […] RA (2 μM; Sigma Aldrich) is added on the final day. Three-dimensional growth and antral specification. Posterior foregut spheroids were embedded in Matrigel (BD Biosciences) as previously described^10, 12 and subsequently grown in Advanced DMEM/F12 (Invitrogen) supplemented with N2 (Invitrogen), B27 (Invitrogen), L-glutamine, 10 μM HEPES, penicillin/streptomycin, and EGF (100 ng ml^−1; R&D Systems). For antral specification, RA and noggin were added for the first three days of three-dimensional growth. For endocrine cell specification, the EGF concentration is lowered to 10 ng ml^−1 at day 30.
The media was changed every day.

[3] = test system: hPSC-derived foregut spheroids; test: Fundus specification protocol: Wnt signaling at days 6-9 of gastric organoid differentiation, qPCR; assay type: cell-based, human; settings: CHIR 2 uM
Method: Next, the function of Wnt signaling in the regulation of fundus-antrum patterning at days 6-9 of the gastric organoid differentiation protocol was tested. Addition of Wnt3a (at 100 ng/mL and 500 ng/mL) had no effect on spheroid gene expression, but it […] expression of the Wnt target gene Axin2. Thus, the effects of the small molecule CHIR99021 (CHIR; 2 uM) were tested. CHIR99021 stimulates Wnt signaling in a receptor-independent fashion.
(§2) Analysis was performed using the ΔΔCT method.

[4] = test system: human antral gastric organoids (hGOs); test: Growth, morphogenesis and endocrine cell specification of human antral gastric organoids at different EGF concentrations; assay type: cell-based
Method: as §1
The spheroids were transferred to a three-dimensional in vitro culture system as previously described5, 10, 12. Briefly, spheroids were collected, resuspended in 50 μl Matrigel (BD Biosciences), and plated in a three-dimensional droplet. After Matrigel was allowed to solidify for 10-15 minutes in a tissue culture incubator, spheroids were overlaid with gut media: Advanced DMEM/F12 with N2 (Invitrogen), B27 (Invitrogen), L-glutamine, 10 μM HEPES, penicillin/streptomycin, and EGF (100 ng ml^−1; R&D Systems). For the first three days, RA and Noggin were added to the gut media. Media was replaced every 3-4 days, as necessary. At day 20, organoids were collected and re-plated in fresh Matrigel at dilution of ˜1:12.
All tissues were fixed in 4% paraformaldehyde for either one hour at room temperature for frozen processing or overnight at 4° C. for paraffin processing. For frozen sections, tissue was protected in 30% sucrose overnight at 4° C., then embedded in OCT (Tissue-Tek), and cut at 10 μm. For paraffin sections, tissue was processed through a graded ethanol series, followed by xylene, and then embedded in paraffin and cut at 7 μm. Tissue culture cells were fixed for 15 minutes at room temperature and stained directly. For staining, frozen slides were thawed to room temperature and rehydrated in PBS, while paraffin slides were deparaffinized and subjected to antigen retrieval. Slides were blocked in 5% normal donkey serum (Jackson Immuno Research) in PBS plus 0.5% Triton-X for 30 minutes at room temperature. Primary antibodies (listed in Methods Table 1) were diluted in blocking buffer and incubated overnight at 4° C. Slides were washed in PBS and incubated with secondary antibody for one hour at room temperature, and coverslips were mounted using Fluoromount-G (Southern Biotech). Confocal images were captured on a Nikon A1Rsi inverted confocal microscope.
as §2

Compound: CC1=C(/C=C/C(C)=C/C=C/C(C)=C/C(=O)O)C(C)(C)CCC1 [RA, retinoic acid]
- increase in PDX1 mRNA levels [1]: > 100 fold

Compound: Cc1c[nH]c(-c2cnc(NCCNc3ccc(C#N)cn3)nc2-c2ccc(Cl)cc2Cl)n1 [CHIR99021]
- posteriorizing effects on endoderm [2]: same posteriorizing effects as recombinant WNT3A
- Pdx1 expression levels [3]: robust repression
- expression of fundus-specific markers IRX3 and IRX5 [3]: induced high levels
- expression of the intestinal marker Cdx2 [3]: did not induce

Compound: EGF: growth factor EGF (R&D Systems) added to gut media
- endocrine cell formation ([4]; EGF 10 ng ml^−1 from day 30-34): abundance of endocrine cells
- organoid diameter ([4]; EGF 100 ng mL^−1, over 3-4 weeks, from spheroids <100 μm): 2-4 mm
- endocrine cells per organoid ([4]; EGF 100 ng ml^−1, 34-day hGOs): < 1 endocrine cell per organoid
- expression of proendocrine transcription factor NEUROG3 ([4]; high EGF (100 ng ml^−1), qPCR at day 34): inhibited
